Results taken from patent publication US20100248229A1, “INVITRO HUMAN EMBRYONIC MODEL AND A METHOD THEREOF” (Stempeutics Research Private Limited, priority 2007, published 2010).

Assays:
Format in all cases: cell-based, human
[1] = tested on: EBs derived from hESC line HUES9; test: Comet assay: DNA fragmentation in EBs; conditions: EBs exposed for 48 hours
Procedure: Comet assay: Detection of DNA damage in individual EBs was carried out with a slight modification of the method described by. Comet tail length was calculated by measuring the streak of DNA comet tail between the edge of the embryoid bodies till the end of tail using Nikon Eclipse 90i microscope (Nikon Corporation, Japan) and Image-Pro Express software (Media Cybernetics, Inc, Silver Spring, Md.).

HUES 9 EB = test: Expression profiles of lineage, pluripotency, epigenetic and imprinted genes in day 4.5 spherical EBs (HUES 9); set-up: key: The sign ‘+’ indicates expression of the gene; the sign “−” indicates non-expression of the gene; conditions: HUES 9 EB D4.5 LPS
Procedure: RT-PCR: Total RNA from cells was isolated using TRIZOL-LS Reagent (Invitrogen) as per the manufacturer's protocol. Complementary DNA was synthesized using the SuperScript III First-Strand Synthesis System (Invitrogen) as per the manufacturer's instructions. Polymerase Chain Reaction (PCR) was carried out using 1U Tag DNA Polymerase (Sigma) and MgCl2 to a final concentration of 1.5 mM in a total volume of 25 μl/reaction. β-actin and GAPDH were used as the housekeeping controls. PCR cycles consisted of an initial denaturation at 95° C. for 5 minutes followed by 35 amplification cycles of denaturation at 94° C. for 45 seconds, annealing for 45 seconds, and extension at 72° C. for 45 seconds and final extension at 72° C. for 10 minutes.
Examples of changes in the expression profiles/patterns of lineage markers, pluripotency markers, epigenetic markers and imprinted genes, in day 4.5 spherical cavitating/cytic embryoid bodies upon exposure to compounds like lipopolysaccharide (LPS), Rho kinase inhibitor (Y27632), Azacytidine (Aza), and biologicals like an Uvomorulin antibody (UVO) are given in the table nos. 9-12 below. The sign ‘+’ indicates expression of the gene and the sign “−” indicates non-expression of the gene.

EBs [2] = test: Effect on the germ lineages: RT-PCR of pluripotency and lineage markers in four day old EBs; conditions: 12 pg/ml for 2 to 4 days
Procedure: Day 4 to 10 old EBs were maintained for 2 to 10 days in presence or absence of various (atleast 8 different) dilutions of the drug supplemented to the standard EB culture media. At the end of the incubation period the EBs were collected and the RNA is isolated from both the control and treated groups. The RNA was used for RT-PCR analysis of a set of developmentally important genes, pluripotency markers like (Nanog, Oct4, Sox2, and HMGB 1), lineage markers for ectoderm, endoderm, mesoderm and trophectoderm listed in table 1, 2, 3, 4, and also for a set of epigenetic signature genes (table nos. 6-7) identified by applicant. Alteration in the expression patterns of these genes in presence or absence of the compound in these EBs indicates their embryotoxic effect and potential to perturb the formation of specific or multiple lineages.
Four day old EBs were exposed to gram negative bacterial endotoxins/LPS at a concentration of 12 pg/ml for 2 to 4 days. The EBs were collected and analysed for pluripotency markers like Oct4, Sox2, HMGB1, and lineage markers like Nestin, PIII-tubulin, GATA4, BMP2, Brachury, Hand1 and BMP4 were studied, by RT-PCR. […] HMGB 1 expression was not found in these normal EBs. […] However, the mesoderm markers BMP2, Hand1, BMP4 and Brachury were silenced in the endotoxin treated EBs. […] This also explains many birth defects, which occurs as a result of gram negative bacterial infections. The expression of the LPS inducible cytokine and pluripotency associated gene HMGB1 in the EBs upon LPS exposure indicate its probable role in the formation of poorly formed embryos during such infections.

EBs [3] = test: In vitro 3-D embryo implantation model: attachment and outgrowth of EBs
Description: An in vitro 3-dimensional (3-D) model/system for embryo implantation employing EBs in place of embryos was developed. The EBs collected on different days were subjected to implantation/attachment on the artificial substratum/surface.
To make this artificial surface regular tissue culture dishes or organ culture dishes were coated with about 1 to 2 mm thick coating of 0.5 to 1% low melting or high melting agarose in DPBS. A few wells of about 1 to 2 mm diameter are created using sterile paper disks, preferable in the center of the dish, which were removed after the agarose solidifies. Alternatively a horizontal tube like structure can be created by casting the gel over a fine glass capillary, which can be withdrawn as the agarose solidifies. This cavity/depression or tube like structure of agarose is then coated with matrix proteins like matrigel, collagen, fibronectin, laminin, gelatin etc. The coated agarose dishes were also layered with mouse or human endometrial stromal cells obtained from primary cultures or cell lines. The EBs were placed carefully in the cavity created or flushed inside the tube using a bent pasture pipette. The cells were cultured in normal standard EB media.
The EBs adhere and outgrows spreading out as a monolayer of cells on the extracellular matrix. Some cells invaded the surrounding agarose by day 10. A failure to implant/outgrow within ten days on this matrix after exposure to the drug/molecule indicates an abnormality. However, some drugs/could also support/enhance the process of attachment and outgrowth of the EBs. These molecules were screened for several other possible applications, though these may not necessarily be safe for embryonic development.
Four day old EBs were cultured on agarose and fibronectin coated surfaces. […] However, as Y27632 supports and enhances outgrowth, the effect of this drug on the expression profiles of the lineage markers and other genes needs to be screened for evaluating effect on normal development.
The model consists of a culture plate which is coated with Low melting (0.5%) agarose, A well of various depths is created in the agarose by various means eg: putting sterile filter paper disks while casting the gel and removing them latter. The gel is then coated with extracellular matrix components like fibronectin, collagen, laminin, etc. Human endometrial stromal fibroblast cell line CRL4003 is grown on this extracellular matrix as a monolayer. The spherical embryoid bodies or embryo like entities at day 4.5 are injected or pipetted into these cavities. The attachment is allowed in a culture media regularly used for hESC culture, without FGF2 supplementation (FIG. 1).
3. Lineage induction studies: The embryoid bodies after attachment to the implantation site differentiates to all lineages.
Method: Spherical Cytic EBs were collected on day 4.5 and exposed to the continuous presence of Y27632 (various doses were used). […] The control cytic EB had however just attached with smaller area of outgrowth showing that this dose of Y27632 can help in initial implantation of embryo during pregnancy.

Substance: lipopolysaccharide [LPS]
- DNA tailing or fragmentation compared to control [1]: more DNA tailing or fragmentation
- DNA tailing or fragmentation (comet tail length, average) ([1]; control 2.48±1.0701 μm): 21.48±12.443 μm
- ABCG2 gene expression (HUES 9 EB; control +): −
- BMP4 gene expression (HUES 9 EB; control +): −
- BRACHURY gene expression (HUES 9 EB; control +): −
- CDH1 gene expression (HUES 9 EB; control +): −
- Dlk1 gene expression (HUES 9 EB; control +): −
- GATA2 gene expression (HUES 9 EB; control +): −
- HAND1 gene expression (HUES 9 EB; control +): −
- SDHD gene expression (HUES 9 EB; control +): −
- cTNT gene expression (HUES 9 EB; control +): −
- hANP gene expression (HUES 9 EB; control +): −
- DPYS gene expression (HUES 9 EB; control −): +
- HMGB1 gene expression (HUES 9 EB; control −): +
- expression of Nestin, βIII-tubulin and GATA4 (RT-PCR) (EBs [2]): positive expression
- expression of mesoderm markers BMP2, Hand1, BMP4 and Brachury (RT-PCR) (EBs [2]): silenced
- expression of HMGB1 (RT-PCR) (EBs [2]; not found in normal EBs): positive expression
- attachment and outgrowth of EBs (EBs [3]; four day old EBs on agarose and fibronectin coated surfaces, 15 pg/ml and above): completely inhibited
- degeneration, attachment and outgrowth of EBs in implantation model (EBs [3]; high dose, 48 hrs): degeneration of the EBs, and they failed to attach and outgrow
- ability of attached EBs to give rise to all lineages (EBs [3]; lineage induction studies, in presence of the compound): compromised
